Laboratory results from paper PMC6342991, “Effects of point mutations in the binding pocket of the mouse major urinary protein MUP20 on ligand affinity and specificity” (Scientific Reports, 2019).
Positions count from the first letter of the chain named. Several values for one entry are separate records, joined by “and”; a condition that tells them apart may be missing. Equal entries are not always repeated. Entries after “also recorded” stand apart in the source; their conditions may differ. Where two headings read alike, the source gives them in different places.

Tests used:
MUP20N107L = biological target: T1, MUP20N107L (Mus musculus, UniProt Q5FW60, N107L); test: Fluorescence competitive binding assay with 1-NPN, MUP20 N107L
T1 construct: 6xHis (N); made in house; host or cells: E. coli BL21(DE3), pET5b
T1 sequence (Q5FW60 20-181 N107L): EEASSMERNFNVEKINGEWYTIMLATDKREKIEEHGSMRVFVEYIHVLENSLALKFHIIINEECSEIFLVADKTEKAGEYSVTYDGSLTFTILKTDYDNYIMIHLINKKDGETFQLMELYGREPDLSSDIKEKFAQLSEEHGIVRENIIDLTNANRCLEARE
Method: (§1) Fluorescence competitive binding assays: Fluorescence-competitive binding assays were carried out using the fluorescent probe N-phenyl-1-naphthylamine (1-NPN), as described[39],[40]. A binding curve was constructed and the dissociation constant of the probe (KD) was calculated.
(§2) The binding analyses assumed that the protein had 100% activity and that the stoichiometry of binding was 1:1 at saturation. The affinity of various volatile ligands was measured in competitive binding assays.
(§3) The change in fluorescence was recorded after adding increasing concentrations of ligand. Competitor concentrations causing a decay of fluorescence to half-maximal intensity were determined as IC50 and the dissociation constant for the test ligands (expressed as Kd) was calculated using the following formula:1 Kd=[IC50]/1+[Probe]/KD where [Probe] is the free concentration of the fluorescent probe and KD is the dissociation constant of the complex Protein/Probe.

MUP20V59T = biological target: T2, MUP20V59T (Mus musculus, UniProt Q5FW60, V59T); test: Fluorescence competitive binding assay with 1-NPN, MUP20 V59T
T2 construct: 6xHis (N); made in house; host or cells: E. coli BL21(DE3), pET5b
T2 sequence (Q5FW60 20-181 V59T): T1 sequence (Q5FW60 20-181 N107L) with V40T, L88N
Method: as §1, §2, §3

MUP20E137K = biological target: T3, MUP20E137K (Mus musculus, UniProt Q5FW60, E137K); test: Fluorescence competitive binding assay with 1-NPN, MUP20 E137K
T3 construct: 6xHis (N); made in house; host or cells: E. coli BL21(DE3), pET5b
T3 sequence (Q5FW60 20-181 E137K): T1 sequence (Q5FW60 20-181 N107L) with L88N, E118K
Method: as §1, §2, §3

wild type MUP20 [1] = biological target: T4, wild type MUP20 (Mus musculus, UniProt Q5FW60); test: Fluorescence competitive binding assay with 1-NPN, wild type MUP20; settings: 1-NPN displacement, 50 mM Tris-HCl pH 7.4, 25 °C
T4 construct: 6xHis (N); made in house; host or cells: E. coli BL21(DE3), pET5b
T4 sequence (Q5FW60 20-181): T1 sequence (Q5FW60 20-181 N107L) with L88N
Method: as §1, §2, §3

MUP20Y103R = biological target: T5, MUP20Y103R (Mus musculus, UniProt Q5FW60, Y103R); test: Fluorescence competitive binding assay with 1-NPN, MUP20 Y103R
T5 construct: 6xHis (N); made in house; host or cells: E. coli BL21(DE3), pET5b
T5 sequence (Q5FW60 20-181 Y103R): T1 sequence (Q5FW60 20-181 N107L) with Y84R, L88N
Method: as §1, §2, §3

MUP20Y103D [2] = biological target: T6, MUP20Y103D (Mus musculus, UniProt Q5FW60, Y103D); test: Fluorescence competitive binding assay with 1-NPN, MUP20 Y103D
T6 construct: 6xHis (N); made in house; host or cells: E. coli BL21(DE3), pET5b
T6 sequence (Q5FW60 20-181 Y103D): T1 sequence (Q5FW60 20-181 N107L) with Y84D, L88N
Method: as §1, §2, §3

MUP20L88Q [3] = biological target: T7, MUP20L88Q (Mus musculus, UniProt Q5FW60, L88Q); test: Fluorescence competitive binding assay with 1-NPN, MUP20 L88Q; settings: 1-NPN displacement, 50 mM Tris-HCl pH 7.4, 25 °C
T7 construct: 6xHis (N); made in house; host or cells: E. coli BL21(DE3), pET5b
T7 sequence (Q5FW60 20-181 L88Q): T1 sequence (Q5FW60 20-181 N107L) with L69Q, L88N
Method: as §1
The affinity of various volatile ligands was measured in competitive binding assays.
as §3

MUP20L124V [4] = biological target: T8, MUP20L124V (Mus musculus, UniProt Q5FW60, L124V); test: Fluorescence competitive binding assay with 1-NPN, MUP20 L124V
T8 construct: 6xHis (N); made in house; host or cells: E. coli BL21(DE3), pET5b
T8 sequence (Q5FW60 20-181 L124V): T1 sequence (Q5FW60 20-181 N107L) with L88N, L105V
Method: as §1, §2, §3

wild type MUP20 [5] = biological target: T4, wild type MUP20; design: method as in Scorsone et al., IEEE Sensors Journal 2016, 16, 6543, Tab. 1; settings: ref Scorsone et al., IEEE Sensors Journal 2016, 16, 6543, Tab. 1; read-out: Kd, WT (starred value); cited from earlier work
MUP20L124V [6] = biological target: T8, MUP20L124V; design: method as in Scorsone et al., IEEE Sensors Journal 2016, 16, 6543, Tab. 1; settings: ref Scorsone et al., IEEE Sensors Journal 2016, 16, 6543, Tab. 1; read-out: Kd, L124V (starred value); cited from earlier work
MUP20Y103D [7] = biological target: T6, MUP20Y103D; design: method as in Scorsone et al., IEEE Sensors Journal 2016, 16, 6543, Tab. 1; settings: ref Scorsone et al., IEEE Sensors Journal 2016, 16, 6543, Tab. 1; read-out: Kd, Y103D (starred value); cited from earlier work
MUP20 mutant Y103R = biological target: T9, MUP20 mutant Y103R (Mus musculus, UniProt Q5FW60, Y103R); test: Isothermal titration calorimetry, MUP20 Y103R; format: binding; settings: 25 °C, 50 mM Tris HCl pH 7.4
T9 construct: 6xHis (N); made in house; host or cells: E. coli BL21(DE3), pET5b
T9 sequence (Q5FW60 20-181 Y103R): T1 sequence (Q5FW60 20-181 N107L) with Y84R, L88N
Method: (§4) ITC titrations were performed at 25 ± 0.1 °C in 50 mM Tris HCl pH 7.4, using a MicroCal VP-ITC instrument. To a MUP solution (1.7 ml, 25 µM) were sequentially added 25 aliquots (10 μl each) of a ligand stock solution (500 μM), with a delay of 4 min after each injection with continuous stirring of the solution (at 307 r.p.m.) in the sample cell. Before analysis, protein samples were dialyzed overnight in the same buffer, using a Slide-A-Lyzer (3.5-kDa cutoff) from ThermoFisher Scientific (Waltham, MA, USA), and thoroughly degassed. The heat of dilution was determined in control experiments by injecting aliquots (10 µl) of a ligand stock solution (500 µM) into buffer and this was subtracted from the integrated binding isotherm prior to curve fitting. Each injection generated a heat-burst curve (μcal s^−1) versus time (min). The area under each peak was determined by integration using Origin 7.5 software (Microcal, Inc.) to give the heat associated with the injection. The heat exchanged per mole of injectant was plotted against the ligand:protein molar ratio. The binding constants (Ka) and stoichiometry (N) parameters of the binding process were obtained by fitting the integrated heats of binding to the one-site binding model using the MicroCal ITC Data Analysis software.

MUP20 mutant L88Q = biological target: T10, MUP20 mutant L88Q (Mus musculus, UniProt Q5FW60, L88Q); test: Isothermal titration calorimetry, MUP20 L88Q; format: binding; settings: for Kd: one-site binding model, 25 °C, 50 mM Tris HCl pH 7.4, read-out: Equilibrium dissociation constant Kd (ITC), L88Q
T10 construct: 6xHis (N); made in house; host or cells: E. coli BL21(DE3), pET5b
T10 sequence (Q5FW60 20-181 L88Q): T1 sequence (Q5FW60 20-181 N107L) with L69Q, L88N
Method: as §4

MUP20 mutant L124V = biological target: T11, MUP20 mutant L124V (Mus musculus, UniProt Q5FW60, L124V); test: Isothermal titration calorimetry, MUP20 L124V; format: binding; settings: for Drop of affinity of L124V compared to wild-type MUP20 (ITC): decrease in affinity; for Kd: one-site binding model, 25 °C, 50 mM Tris HCl pH 7.4, read-out: Equilibrium dissociation constant Kd (ITC), L124V
T11 construct: 6xHis (N); made in house; host or cells: E. coli BL21(DE3), pET5b
T11 sequence (Q5FW60 20-181 L124V): T1 sequence (Q5FW60 20-181 N107L) with L88N, L105V
Method: as §4

wild type MUP20 [8] = biological target: T4, wild type MUP20; test: Isothermal titration calorimetry, wild type MUP20; format: binding; settings: for Kd: one-site binding model, 25 °C, 50 mM Tris HCl pH 7.4, read-out: Equilibrium dissociation constant Kd (ITC), WT
Method: as §4

MUP20L88Q [9] = biological target: T7, MUP20L88Q; design: method as in Scorsone et al., IEEE Sensors Journal 2016, 16, 6543, Tab. 1; settings: ref Scorsone et al., IEEE Sensors Journal 2016, 16, 6543, Tab. 1; read-out: Kd, L88Q (starred value); cited from earlier work
[10] = 1-NPN displacement, 50 mM Tris-HCl pH 7.4, 25 °C, read-out: Measured Kd, N107L
[11] = 1-NPN displacement, 50 mM Tris-HCl pH 7.4, 25 °C, read-out: Measured Kd, V59T
[12] = 1-NPN displacement, 50 mM Tris-HCl pH 7.4, 25 °C, read-out: Measured Kd, E137K
[13] = 1-NPN displacement, 50 mM Tris-HCl pH 7.4, 25 °C, read-out: Measured Kd, Y103R
[14] = 1-NPN displacement, 50 mM Tris-HCl pH 7.4, 25 °C, read-out: Measured Kd, Y103D
[15] = 1-NPN displacement, 50 mM Tris-HCl pH 7.4, 25 °C, read-out: Measured Kd, L124V

Structure (SMILES) | Kd (MUP20N107L; [10]) [µM] | Kd (MUP20V59T; [11]) [µM] | Kd (MUP20E137K; [12]) [µM] | Kd (wild type MUP20 [1]; read-out: Measured Kd, WT) | Kd (MUP20Y103R; [13]) [µM] | Kd (MUP20Y103D [2]; [14]) [µM] | Kd (MUP20L88Q [3]; read-out: Measured Kd, L88Q) | Kd (MUP20L124V [4]; [15]) [µM] | Binding strength to Y103R mutant (ITC) (MUP20 mutant Y103R) | Kd (MUP20 mutant L88Q) [µM] | Drop of affinity of L124V compared to wild-type MUP20 (ITC) (MUP20 mutant L124V) [fold] | Kd (MUP20 mutant L124V) [µM] | Kd (wild type MUP20 [8]) [µM] | also measured
Cc1ccc(O)c(C)c1 [2,4-DMP, 2,4-dimethylphenol] | – | – | – | – | – | – | – | – | – | – | – | – | – | Kd (MUP20N107L): 1.99 µM; Kd (MUP20V59T): 1.44 µM; Kd (MUP20E137K): 4.05 µM; Kd (wild type MUP20 [1]; Measured Kd, WT): 4.24 µM; Kd (MUP20Y103R): 11.9 µM; Kd (MUP20Y103D [2]): 4.68 µM; Kd (MUP20L88Q [3]; Measured Kd, L88Q): 5.08 µM; Kd (MUP20L124V [4]): 1.3 µM
C=CC(C)(O)CCC=C(C)C (stereo not drawn) [LIN, 3,7-dimethylocta-1,6-dien-3-ol] | 1.37 | 1.6 | 1.85 | 2.82 µM | 5.93 | 2.17 | 2.21 µM | 0.29 | – | – | – | – | – | –
CCCCCCC(CO)CCCC (stereo not drawn) [OCT, 2-butyl-1-octanol] | 2.67 | 1.54 | 3.2 | 0.78 µM | 1.88 | 0.92 | 1.45 µM | 0.36 | – | – | – | – | – | –

Further compounds by falling Kd (MUP20N107L; [10]), results first:

Kd (MUP20N107L; [10]) [µM] | Kd (MUP20V59T; [11]) [µM] | Kd (MUP20E137K; [12]) [µM] | Kd (wild type MUP20 [1]; read-out: Measured Kd, WT) | Kd (MUP20Y103R; [13]) [µM] | Kd (MUP20Y103D [2]; [14]) [µM] | Kd (MUP20L88Q [3]; read-out: Measured Kd, L88Q) | Kd (MUP20L124V [4]; [15]) [µM] | Binding strength to Y103R mutant (ITC) (MUP20 mutant Y103R) | Kd (MUP20 mutant L88Q) [µM] | Drop of affinity of L124V compared to wild-type MUP20 (ITC) (MUP20 mutant L124V) [fold] | Kd (MUP20 mutant L124V) [µM] | Kd (wild type MUP20 [8]) [µM] | Structure (SMILES) | also measured
1.4 | 1.93 | 1.52 | 1.29 µM and 1.3 µM | 0.74 | 0.84 | 1.39 µM and 1.4 µM | 0.07 | barely detectable | 2.4 | 1300 | 2100 ± 200 | 1.6 | COc1nccnc1CC(C)C [PYR, 2-isobutyl-3-methoxypyrazine] | Change of affinity of L88Q compared to wild-type MUP20 (ITC) (MUP20 mutant L88Q; number = increase in affinity): did not appreciably affect; also recorded: does not alter; Affinity for wild type MUP20 relative to MEN (ITC) (wild type MUP20 [8]; higher affinity than MEN): > 40 fold
1.23 | 1.85 | 2.14 | – | – | – | – | – | barely detectable | 13 ± 6 | 25 | 1900 ± 100 | 76 ± 19 | CC1=CC(=O)c2ccccc2C1=O [MEN, methylnapthalene-1,4-dione] | Kd (wild type MUP20 [5]): 0.61 µM; Kd (MUP20L124V [6]): 0.07 µM; Kd (MUP20Y103D [7]): 0.82 µM; Kd (MUP20L88Q [9]): 1.31 µM
